Reference: patent publication US6403554B2, “Polyunsaturated fatty acid derivatives and their use” (Ardenia Investments Ltd., priority 1998, dated 2002)
Entries after “also recorded” stand apart in the source; their conditions may differ.

Experiments:
[1] = system: antibody-forming cells (AFC) in the spleen; test: Influence of compound on humoral immune response to sheep erythrocytes, C57B1/6 female mice (AFC in spleen, hemagglutinins); type: in vivo; details: for Amount of antibody-forming cells per 10^6 spleen cells / Amount of antibody-forming cells per spleen: M ± SEM; for Spleen index: with SRBC i.p.; for Amount of hemagglutinins: serum
Experimental: The increase was calculated as compared with the amount of cells in the animals immunised only with sheep erythrocytes.
(§1) 0.15 ml of compound 10 was administered intravenously to 6 mice females of CS7B1/6 line (weight 18-22 g) in doses of 45.5, 91 and 136.5 μg of compound 10 per capita for each testing group according to the dose. Simultaneously, a suspension of 5·10^7 sheep erythrocytes was injected intraperitoneally (0.2 ml per capita). Mice in the control group were injected intravenously with equal volume of saline. The effects of compound 10 on humoral immune response were analyzed both by counting the quantity of AFC in the spleen according to Cunningham (per 10^6 spleen cells and per spleen) and estimating the titers of hemagglutining antibodies in serum of the animals (Cunningham A. J., Nature, 1965, Vol.207, No 5001. P.1106-1107), while the titers of hemagglutinating antibodies were evaluated according to litterature (Evans J. et al., Cell, 1974; Vol 3., p.153-158, Feizi T., Menger E., Transfusion, 1970, Vol. 10, p.33-35,).
(§2) 0.15 ml of compound 11 was administered intravenously to 6 female mice of the C57B1/6 line (weight 18-22 g) in doses of 45.5, 91 and 136.5 μg of compound 11 per capita for each testing group according to the dose. Simultaneously, a suspension of 5·10^7 sheep erytrocytes was injected intraperitoneally (0.2 ml per capita). Mice in the control group were injected intravenously with an equal volume of saline. The effects of compound 11 on humoral immune response was analysed both by counting the quantity of AFC in the spleen according to Cunningham (per 10^6 spleen cells and per spleen) and estimating the titers of hemagglutining antibodies in serum of the animals.
as §2, with “12” for “11”, “erythrocytes” for “erytrocytes”, “analyzed” for “analysed”
as §2, with “compound 8” for “compound 11”, “sheep erythrocytes” for “sheep erytrocytes”, “Mice of” for “Mice in”, “response were analyzed” for “response was analysed”
0.15 ml of compound 3 was administered intravenously to 6 female mice of the C57B1/6 line (weight 18-22 g) in doses of 45.5, 91 and 136.5 μg of compound 3 per capita for each testing group according to the dose. Simultaneously, a suspension of 5·10^7 sheep erytrocytes was injected intraperitoneally (0.2 ml per capita). Mice of the control group were injected intravenously with equal volume of saline.

[2] = system: antibody-forming cells (AFC) in the spleen; test: Influence of human AFP/compound complex and compound alone on humoral immune response, C57B1/6 male mice; type: in vivo; details: compound alone
Experimental: The influence of complexes of AFP with one of the title compounds 1-4, 1a-4a, 5-20 as well as their basic components on humoral immune response was estimated by counting the quantity of antibody-forming cells (AFC) in the mice spleen.
(§3) 0.15 ml of AFP/Compound 3 complex was administered intravenously to 6 mice males of C57B1/6 line (weight 18-22 g) in the dose of […] of AFP and 45.5 μg of compound 3 per capita. Simultaneously suspension of 5·10^7 sheep erythrocytes was injected intraperitoneally (0.2 ml per capita). In the group with compound 3 mice were injected intravenously by one in the dose of 45.5 μg. Animals of group with AFP received 9 μg of AFP. Mice of control group were injected intravenously with equal volume of saline. Complex AFP/Compound 3 effect on humoral immune response was analyzed by counting the quantity of AFC in the spleen according to Cunningham (per 10^6 spleen cells and per spleen).
(§4) 0.15 ml of AFP/Compound 2a complex (1:100) was administered intravenously to 6 mice males of C57B1/6 line (weight 18-22 g) in the dose of 9 μg of AFP and 45.5 μg of compound 2a per capita. Simultaneously, a suspension of 5·10^7 sheep erythrocytes was injected intraperitoneally (0.2 ml per capita). In the group with compound 2a mice were injected intravenously by one in the dose of 45.5 μg. Animals of group with AFP received 9 μg of AFP. Mice in the control group were injected intravenously with an equal volume of saline. The effect of the AFP/Compound 2a complex on humoral immune response was analyzed by counting the quantity of AFC in the spleen according to Cunningham (per 10^6 spleen cells and per spleen).
(§5) 0.15 ml of AFP/Compound 10 complex (1:200) was administered intravenously to 6 male mice of C57B1/6 line (weight 18-22 g) in the dose of 9 μg of AFP and 91 μg of compound 10 per capita. Simultaneously, a suspension of 5·10^7 sheep erythrocytes was injected intraperitoneally (0.2 ml per capita). In the group receiving compound 10 mice were injected intravenously by one in the dose of 91 μg. Animals in the group with AFP received 9 μg of AFP. Micein the control group were injected intravenously with an equal volume of saline. The effect of the AFP/Compound 10 complex on humoral immune response was analyzed by counting the quantity of AFC in the spleen according to Cunningham (per 10^6 spleen cells and per spleen).
as §5, with “AFP/Compound 14” for “AFP/Compound 10”, “compound 14” for “compound 10”, “group with” for “group receiving”, “Animals of” for “Animals in the”, “AFP. Mice in” for “AFP. Micein”

[3] = system: hemagglutinating antibodies in serum; test: Humoral immune response: titers of hemagglutinating antibodies in serum; type: in vivo, C57B1/6 mice; details: serum, female mice
Experimental: as §1, §2
as §2, with “12” for “11”, “erythrocytes” for “erytrocytes”, “analyzed” for “analysed”
as §2, with “compound 8” for “compound 11”, “sheep erythrocytes” for “sheep erytrocytes”, “Mice of” for “Mice in”, “response were analyzed” for “response was analysed”
as §2, with “compound 3” for “compound 11”, “Mice of” for “Mice in”, “with” for “with an”, “response were” for “response was”
(§6) 0.15 ml of compound 4 was administered intravenously to 6 female mice of the C57B1/6 line (weight 18-22 g) in a doses of 45.5, 91 and 136.5 μg of compound 4 per capita for each testing group according to the dose. Simultaneously, a suspension of 5·10^7 sheep erythrocytes was injected intraperitoneally (0.2 ml per capita). […]

[4] = system: antibody-forming cells (AFC) in the spleen; test: Influence of AFP/compound complexes and their components on humoral immune response (AFC in spleen); type: in vivo, C57B1/6 mice; details: for Dose at which immunostimulating effect in vivo is displayed: compound in a complex with AFP; for Immunogenic activity: compound alone
Experimental: as §3, §4, §5
as §5, with “AFP/Compound 14” for “AFP/Compound 10”, “compound 14” for “compound 10”, “group with” for “group receiving”, “Animals of” for “Animals in the”, “AFP. Mice in” for “AFP. Micein”
0.15 ml of AFP/Compound 7 complex (1:200) was administered intravenously to 6 male mice of C57B1/6 line (weight 18-22 g) in the dose of 9 μg of AFP and 91 μg of compound 7 per capita. Simultaneously, a suspension of 5·10^7 sheep erythrocytes was injected intraperitoneally (0.2 ml per capita). In the group with compound 7 mice were injected intravenously by one in the dose of 91 μg. Animals of group with AFP received 9 μg of AFP. Mice of control group were injected intravenously with equal volume of saline. AFP/Compound 7 complex effect on humoral immune response was analyzed by counting the quantity of AFC in the spleen according to Cunningham (per 10^6 spleen cells and per spleen).
0.15 ml of AFP/Compound 15 complex (1:200) was administered intravenously to 6 mice males of C57B1/6 line (weight 18-22 g) in the dose of 9 μg of AFP and 91 μg of compound 15 per capita. Simultaneously, a suspension of 5·10^7 sheep erythrocytes was injected intraperitoneally (0.2 ml per capita). In the group receiving compound 15, the mice were injected intravenously by one in the dose of 91 μg. Animals in the AFP-group received 9 μg of AFP. […]

[5] = system: antibody-forming cells (AFC) in the spleen; test: Humoral immune response: counting antibody-forming cells (AFC) in the spleen according to Cunningham, mice immunised with sheep erythrocytes; type: in vivo, C57B1/6 mice; details: compound alone
Experimental: as §1, §2
as §2, with “12” for “11”, “erythrocytes” for “erytrocytes”, “analyzed” for “analysed”
as §2, with “compound 8” for “compound 11”, “sheep erythrocytes” for “sheep erytrocytes”, “Mice of” for “Mice in”, “response were analyzed” for “response was analysed”
as §2, with “compound 3” for “compound 11”, “Mice of” for “Mice in”, “with” for “with an”, “response were” for “response was”
as §6

[6] = 45.5 μg/mouse, i.v., 5th day, vs control

CC1=C(/C=C/C(C)=C/C=C/C(C)=C/C(=O)N[C@H](C(=O)O)[C@@H](C)OP(=O)(O)O)C(C)(C)CCC1 (relative stereo) [Compound 3, N-(all-trans-Retinoyl)-O-phospho-L-threonine]
Immunogenic activity ([1]; 45.5 μg/mouse): no immunogenic activity | Amount of antibody-forming cells per 10^6 spleen cells ([1]; 45.5 μg/mouse, i.v., 5th day): 472.2±52.4 cells per 10^6 spleen cells | Amount of antibody-forming cells per spleen ([1]; 45.5 μg/mouse, i.v., 5th day): 44.6±3.9 × 10^3 | Effect on relative amount of AFC (per 10^6 spleen cells) [1, 6]: +15.9 p > 00.05% | Effect on total AFC amount (per spleen) [1, 6]: +10.1 p > 0.05% | Effect on hemagglutinin titers ([1]; 45.5 μg/mouse, i.v., vs control): +4.8 p > 0.05% | Spleen index ([1]; 45.5 μg/mouse, i.v.): 6.1 ± 0.3 10^−3 | immunostimulating effect in vivo in micelle form ([1]; 91 μg/mouse): display immunostimulating effect in vivo | Amount of antibody-forming cells per 10^6 spleen cells ([1]; 91 μg/mouse, i.v., 5th day): 827.7±34.6 cells per 10^6 spleen cells | Amount of antibody-forming cells per spleen ([1]; 91 μg/mouse, i.v., 5th day): 60.3±4.1 × 10^3 | Amount of hemagglutinins ([1]; 91 μg/mouse, i.v.): 8.0±0.3 Log2 T | Spleen index ([1]; 91 μg/mouse, i.v.): 6.2 ± 0.2 10^−3 | Amount of antibody-forming cells per 10^6 spleen cells ([1]; 136.5 μg/mouse, i.v., 5th day): 961.3±56.5 cells per 10^6 spleen cells | Amount of antibody-forming cells per spleen ([1]; 136.5 μg/mouse, i.v., 5th day): 107.0±8.5 × 10^3 | Amount of hemagglutinins ([1]; 136.5 μg/mouse, i.v.): 8.7±0.3 Log2 T | Spleen index ([1]; 136.5 μg/mouse, i.v.): 6.8 ± 0.3 10^−3 | immunostimulating action ([1]; 91 and 136.5 μg/mouse): high immunostimulating action | Immunogenic activity ([2]; 45.5 μg/mouse): no immunogenic activity; also recorded: do not inhibit immunogenic activity | relative amount of AFC ([2]; 45.5 μg/mouse i.v., 5th day): 472.2±52.4 cells per 10^6 spleen cells | total AFC amount ([2]; 45.5 μg/mouse i.v., 5th day): 44.6±3.9 × 10^3

CC1=C(/C=C/C(C)=C/C=C/C(C)=C/C(=O)N[C@H](C(=O)O)[C@@H](C)OP(=O)(O)O)C(C)(C)CCC1 (relative stereo) [Compound 3, N-(all-trans-retinoyl)-o-phospho-L-threonine]
Amount of hemagglutinins ([3]; 45.5 μg/mouse i.v.): 6.6 ± 0.2 Log2 T | Amount of hemagglutinins ([3]; 91 μg/mouse i.v.): 8.0 ± 0.3 Log2 T | Amount of hemagglutinins ([3]; 136.5 μg/mouse i.v.): 8.7 ± 0.3 Log2 T | Dose at which immunostimulating effect in vivo is displayed [4]: 45.5 μg/mouse | Dose at which immunostimulating effect in vivo is displayed (micelle form) [5]: 91 μg/mouse

CC1=C(/C=C/C(C)=C/C=C/C(C)=C\C(=O)N[C@@H](COP(=O)(O)O)C(=O)O)C(C)(C)CCC1 (stereo in doubt) [Compound 2a, N-(13-cis-retinoyl)-o-phospho-L-serine]
Amount of hemagglutinins ([3]; 45.5 μg/mouse i.v.): 7.2 ± 0.3 Log2 T | Amount of hemagglutinins ([3]; 91 μg/mouse i.v.): 7.5 ± 0.2 Log2 T | Amount of hemagglutinins ([3]; 136.5 μg/mouse i.v.): 8.2 ± 0.4 Log2 T | Immunogenic activity ([4]; 45.5 μg/mouse): no immunogenic activity; also recorded: do not inhibit immunogenic activity | Dose at which immunostimulating effect in vivo is displayed [4]: 45.5 μg/mouse | Dose at which immunostimulating effect in vivo is displayed (micelle form) [5]: 91 μg/mouse

CC/C=C\C/C=C\C/C=C\C/C=C\C/C=C\C/C=C\CCC(=O)N[C@@H](COP(=O)(O)O)C(=O)O [Compound 10, N-docosahexaenoyl-o-phospho-L-serine]
Amount of hemagglutinins ([3]; 45.5 μg/mouse i.v.): 7.8 ± 0.3 Log2 T | Amount of hemagglutinins ([3]; 91 μg/mouse i.v.): 7.8 ± 0.3 Log2 T | Amount of hemagglutinins ([3]; 136.5 μg/mouse i.v.): 8.5 ± 0.4 Log2 T | Immunogenic activity ([4]; 91 μg/mouse): no immunogenic activity; also recorded: do not inhibit immunogenic activity | Dose at which immunostimulating effect in vivo is displayed [4]: 91 μg/mouse

CC/C=C\C/C=C\C/C=C\C/C=C\C/C=C\CCCC(=O)N[C@@H](COP(=O)(O)O)C(=O)O [Compound 14, N-eicosapentaenoyl-o-phospho-L-serine]
Amount of hemagglutinins ([3]; 45.5 μg/mouse i.v.): 6.5 ± 0.3 Log2 T | Amount of hemagglutinins ([3]; 91 μg/mouse i.v.): 7.0 ± 0.3 Log2 T | Amount of hemagglutinins ([3]; 136.5 μg/mouse i.v.): 7.2 ± 0.2 Log2 T | Immunogenic activity ([4]; 91 μg/mouse): no immunogenic activity; also recorded: do not inhibit immunogenic activity | Dose at which immunostimulating effect in vivo is displayed [4]: 91 μg/mouse
